{
  "source": "patent US8968755B2",
  "about": "“Topical base and active agent-containing compositions, and methods for improving and treating skin” (priority 2010, dated 2015)",
  "origin": "cited, not measured here",
  "data": [
    {"smiles": "CCCCCCCCCCCCCCCCCCO", "note": "[Stearyl alcohol, 1-octadecanol]", "values": [
      {"measurement": "solubility in water", "result": "insoluble in water"}
    ]}
  ]
}
